For orientation: IC50 means the concentration that gives 50% inhibition.

Bounds are passed on as bounds.

For this test, the target named is T1, PD-1/PD-L1 protein/protein interaction (recombinant human PD-L1 protein (19-238), recombinant human PD-1 protein (25-167)) (Homo sapiens, UniProt Q9NZQ7).
T1 construct: Recombinant human PD-L1 protein (19-238) with a His-tag at the C-terminus; purchased AcroBiosystems PD1-H5229 (PD-L1-His); PD1-H5257 (PD-1-Fc)
T1 sequence (Q9NZQ7 19-238): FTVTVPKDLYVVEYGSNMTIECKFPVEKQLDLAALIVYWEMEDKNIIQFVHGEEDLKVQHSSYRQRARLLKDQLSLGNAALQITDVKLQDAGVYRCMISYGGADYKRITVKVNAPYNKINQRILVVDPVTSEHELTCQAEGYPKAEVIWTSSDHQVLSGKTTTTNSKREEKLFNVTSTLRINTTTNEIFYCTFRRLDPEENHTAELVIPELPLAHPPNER
As to the kind of experiment: PD-1/PD-L1 Homogeneous Time-Resolved Fluorescence (HTRF) Binding Assay. Conditions: 25° C., PBS buffer (pH 7.4), 40 minutes preincubation with inhibitors. As for the experimental part: The assays were conducted in a standard black 384-well polystyrene plate with a final volume of 20 μL. Inhibitors were first serially diluted in DMSO and then added to the plate wells before the addition of other reaction components. The final concentration of DMSO in the assay was 1%. The assays were carried out at 25° C. in the PBS buffer (pH 7.4) with 0.05% Tween-20 and 0.1% BSA. Recombinant human PD-L1 protein (19-238) with a His-tag at the C-terminus was purchased from AcroBiosystems (PD1-H5229). Recombinant human PD-1 protein (25-167) with Fc tag at the C-terminus was also purchased from AcroBiosystems (PD1-H5257). PD-L1 and PD-1 proteins were diluted in the assay buffer and 10 μL was added to the plate well. Plates were centrifuged and proteins were preincubated with inhibitors for 40 minutes. The incubation was followed by the addition of 10 μL of HTRF detection buffer supplemented with Europium cryptate-labeled anti-human IgG (PerkinElmer-AD0212) specific for Fc and anti-His antibody conjugated to SureLight®-Allophycocyanin (APC, PerkinElmer-AD0059H). After centrifugation, the plate was incubated at 25° C. for 60 min. before reading on a PHERAstar FS plate reader (665 nm/620 nm ratio). Final concentrations in the assay were […], 10 nM PD-L1, 1 nM europium anti-human IgG and 20 nM anti-His-Allophycocyanin. IC50 determination was performed by fitting the curve of percent control activity versus the log of the inhibitor concentration using the GraphPad Prism 5.0 software.
In general terms: In TR-FRET formats the signal depends on donor and acceptor labels being close together.
On to `Cn1cc(CN2CC[C@@H](O)C2)cc(C(=O)Nc2cccc(-c3cccc(Nc4nccc5cc(CN6CC(C(=O)O)C6)cnc45)c3Cl)c2Cl)c1=O` [Example 16, (R)-1-((8-(2,2′-dichloro-3′-(5-((3-hydroxypyrrolidin-1-yl)methyl)-1-methyl-2-oxo-1,2-dihydropyridine-3-carboxamido)biphenyl-3-ylamino)-1,7-naphthyridin-3-yl)methyl)azetidine-3-carboxylic acid], for which the IC50 is no more than 10 nM. As for `Cn1cc(CNCCO)cc(C(=O)Nc2cccc(-c3cccc(Nc4nccc5cc(CN6CC(C(=O)O)C6)cnc45)c3Cl)c2Cl)c1=O` [Example 17, 1-((8-(2,2′-dichloro-3′-(5-((2-hydroxyethylamino)methyl)-1-methyl-2-oxo-1,2-dihydropyridine-3-carboxamido)biphenyl-3-ylamino)-1,7-naphthyridin-3-yl)methyl)azetidine-3-carboxylic acid], the IC50 is no more than 10 nM. For `Cn1cc(CNCC(C)(C)O)cc(C(=O)Nc2cccc(-c3cccc(Nc4nccc5cc(CN6CC(C(=O)O)C6)cnc45)c3Cl)c2Cl)c1=O` [Example 18, 1-((8-(2,2′-dichloro-3′-(5-((2-hydroxy-2-methylpropylamino)methyl)-1-methyl-2-oxo-1,2-dihydropyridine-3-carboxamido)biphenyl-3-ylamino)-1,7-naphthyridin-3-yl)methyl)azetidine-3-carboxylicacid], the IC50 was no more than 10 nM. The same measure for `Cc1c(Nc2nccc3cc(CNCCO)cnc23)cccc1-c1cccc(Nc2nccc3cc(CNCCO)cnc23)c1C` [Example 19, 2,2′-(((((2,2′-dimethyl-[1,1′-biphenyl]-3,3′-diyl)bis(azanediyl))bis(1,7-naphthyridine-8,3-diyl))bis(methylene))bis(azanediyl))bis(ethan-1-ol)]: no more than 10 nM; for `Cc1c(Nc2nccc3cc(CN4CC[C@@H](O)C4)cnc23)cccc1-c1cccc(Nc2nccc3cc(CN4CC[C@@H](O)C4)cnc23)c1C` [Example 20, (3R,3′R)-1,1′-((((2,2′-dimethyl-[1,1′-biphenyl]-3,3′-diyl)bis(azanediyl))bis(1,7-naphthyridine-8,3-diyl))bis(methylene))bis(pyrrolidin-3-ol)]: no more than 10 nM; for `Cc1c(Nc2nccc3cc(CNCCO)cnc23)cccc1-c1cccc(Nc2nccc3cc(CN4CC[C@@H](O)C4)cnc23)c1C` [Example 21, (R)-1-((8-(3′-(3-((2-hydroxyethylamino)methyl)-1,7-naphthyridin-8-ylamino)-2,2′-dimethylbiphenyl-3-ylamino)-1,7-naphthyridin-3-yl)methyl)pyrrolidin-3-ol]: no more than 10 nM.

Turning to `O[C@@H]1CCN(Cc2cnc3c(Nc4cccc(-c5cccc(Nc6nccc7cc(CN8CC[C@@H](O)C8)cnc67)c5Cl)c4Cl)nccc3c2)C1` [Example 22, (3R,3′R)-1,1′-((((2,2′-dichloro-[1,1′-biphenyl]-3,3′-diyl)bis(azanediyl))bis(1,7-naphthyridine-8,3-diyl))bis(methylene))bis(pyrrolidin-3-ol)], the IC50 is no more than 10 nM. In the case of `Cc1c(Nc2nccc3cc(CN4CC[C@@H](O)C4)cnc23)cccc1-c1cccc(Nc2ncnc3cc(CN4CC[C@@H](O)C4)cnc23)c1C` [Example 23, (R)-1-((4-(3′-(3-(((R)-3-hydroxypyrrolidin-1-yl)methyl)-1,7-naphthyridin-8-ylamino)-2,2′-dimethylbiphenyl-3-ylamino)pyrido[3,2-d]pyrimidin-7-yl)methyl)pyrrolidin-3-ol] it was no more than 10 nM; in that of `Cc1c(Nc2nccc3cc(CN4CC[C@@H](O)C4)cnc23)cccc1-c1cccc(Nc2ncnc3cc(CNCCO)cnc23)c1C` [Example 24, (R)-1-((8-(3′-(7-((2-hydroxyethylamino)methyl)pyrido[3,2-d]pyrimidin-4-ylamino)-2,2′-dimethylbiphenyl-3-ylamino)-1,7-naphthyridin-3-yl)methyl)pyrrolidin-3-ol], no more than 10 nM; in that of `Cc1c(Nc2nccc3cc(CN4CC[C@@H](O)C4)cnc23)cccc1-c1cccc(Nc2ncnc3cc(CN(C)CCO)cnc23)c1C` [Example 25, (R)-1-((8-(3′-(7-(((2-hydroxyethyl)(methyl)amino)methyl)pyrido[3,2-d]pyrimidin-4-ylamino)-2,2′-dimethylbiphenyl-3-ylamino)-1,7-naphthyridin-3-yl)methyl)pyrrolidin-3-ol], no more than 10 nM. In the case of `Cc1c(Nc2nccc3cc(CN4CC[C@@H](O)C4)cnc23)cccc1-c1cccc(Nc2nccc3cc(CN4CC[C@@H](C(=O)N(C)C)C4)cnc23)c1C` [Example 26, (R)-1-((8-(3′-(3-(((R)-3-hydroxypyrrolidin-1-yl)methyl)-1,7-naphthyridin-8-ylamino)-2,2′-dimethylbiphenyl-3-ylamino)-1,7-naphthyridin-3-yl)methyl)-N,N-dimethylpyrrolidine-3-carboxamide], the IC50 is no more than 10 nM. With `Cc1c(Nc2nccc3cc(CN4CC[C@@H](O)C4)cnc23)cccc1-c1cccc(Nc2ncnc3cc(CNC[C@H](C)O)cnc23)c1C` [Example 27, (R)-1-((8-(3′-(7-(((S)-2-hydroxypropylamino)methyl)pyrido[3,2-d]pyrimidin-4-ylamino)-2,2′-dimethylbiphenyl-3-ylamino)-1,7-naphthyridin-3-yl)methyl)pyrrolidin-3-ol], the IC50 was no more than 10 nM. As for `Cc1c(NC(=O)c2cc(CN3CC[C@@H](O)C3)cn(C)c2=O)cccc1-c1cccc(Nc2nccc3cc(CN4CC[C@@H](C(=O)O)C4)cnc23)c1C` [Example 28, (R)-1-((8-(3′-(5-(((R)-3-hydroxypyrrolidin-1-yl)methyl)-1-methyl-2-oxo-1,2-dihydropyridine-3-carboxamido)-2,2′-dimethylbiphenyl-3-ylamino)-1,7-naphthyridin-3-yl)methyl)pyrrolidine-3-carboxylic acid], the IC50 was no more than 10 nM.

Take `Cc1c(Nc2nccc3cc(CN4CC[C@@H](O)C4)cnc23)cccc1-c1cccc(Nc2ncnc3cc(CNC[C@@H](C)O)cnc23)c1C` [Example 29, (R)-1-((8-(3′-(7-(((R)-2-hydroxypropylamino)methyl)pyrido[3,2-d]pyrimidin-4-ylamino)-2,2′-dimethylbiphenyl-3-ylamino)-1,7-naphthyridin-3-yl)methyl)pyrrolidin-3-ol]: the IC50 is no more than 10 nM. In the case of `Cc1c(Nc2nccc3cc(CN4CC[C@@H](O)C4)cnc23)cccc1-c1cccc(Nc2ncnc3cc(CNCC(C)(C)O)cnc23)c1C` [Example 30, (R)-1-((8-(3′-(7-((2-hydroxy-2-methylpropylamino)methyl)pyrido[3,2-d]pyrimidin-4-ylamino)-2,2′-dimethylbiphenyl-3-ylamino)-1,7-naphthyridin-3-yl)methyl)pyrrolidin-3-ol] it was no more than 10 nM; in that of `Cc1c(Nc2nccc3cc(CN4CC[C@@H](C(=O)O)C4)cnc23)cccc1-c1cccc(NC(=O)c2nc3c(n2C)CCN(C)C3)c1Cl` [Example 31, (R)-1-((8-(2′-chloro-3′-(1,5-dimethyl-4,5,6,7-tetrahydro-1H-imidazo[4,5-c]pyridine-2-carboxamido)-2-methylbiphenyl-3-ylamino)-1,7-naphthyridin-3-yl)methyl)pyrrolidine-3-carboxylic acid], no more than 10 nM.
